Laboratory results as given in paper PMC4519859, “Synthesis and Biological Evaluation of Novel Dehydroabietic Acid Derivatives Conjugated with Acyl-Thiourea Peptide Moiety as Antitumor Agents” (International Journal of Molecular Sciences, 2015).

Assays:
Format in all cases: cell-based, human
[1] = system: HeLa cells; experiment: JC-1 mitochondrial membrane potential staining; conditions: 10 μM, 12 and 24 h
Source text: Apoptosis plays an important role in cancer, since its induction in tumor cells is essential for successful treatment. Mitochondria play key roles in apoptosis through the release of pro-apoptotic factors such as cytochrome c and apoptosis-inducing factor [19, 20]. In order to further investigate the apoptosis-inducing effect of target compound 9n, mitochondrial membrane potential changes were designed and detected, using the fluorescent probe JC-1. […] In the control cells, JC-1 could aggregate in mitochondria and present high red fluorescence. However, in cells undergoing apoptosis, where the mitochondrial potential has collapsed, JC-1 exists in the cytosol as a monomer that emits green fluorescence. HeLa cells treated with compound 9n at 10 μM from 12 to 24 h were stained with JC-1 and cells not treated with the compound 9n were used as control for 24 h. […]
General procedure for mitochondrial membrane potential staining: JC-1 probe was employed to measure mitochondrial depolarization in […]. […] Mitochondrial membrane potentials were monitored by determining the relative amounts of dual emissions from mitochondrial JC-1 monomers or aggregates using an Nikon ECLIPSETE2000-S fluorescent microscope. Mitochondrial depolarization is indicated by an increase in the green/red fluorescence intensity ratio.

[2] = system: HeLa cells; experiment: Cell cycle distribution by PI flow cytometry; conditions: 10, 15 μM, 48 h
Procedure: Many anticancer drugs interact with cells leading to cell growth arrest. To determine the possible role of cell cycle arrest in DHAA derivative induced growth inhibition, HeLa cells were treated with different concentrations of compound 9n. Cell cycle distribution was investigated by flow cytometric analysis after staining of the DNA with propidium iodide (PI).
General procedure cell cycle: HeLa cells were maintained in Dulbecco’s modified Eagle’s medium with 10% fetal calf serum in 5% CO2 at 37 °C. Cells were harvested by trypsinization and rinsed with PBS. After centrifugation, the pellet (10^5–10^6 cells) was suspended in 1 mL of PBS and kept on ice for 5 min. The cell suspension was then fixed by the drop-wise addition of 9 mL precooled (4 °C) 75% ethanol with violent shaking. Fixed samples were kept at 4 °C until use. For staining, cells were centrifuged, resuspended in PBS, digested with 500 μL of RNase A (250 mg/mL), and treated with 25 μL of propidium iodide (PI) (0.15 mM), then incubated for 30 min at 4 °C. PI-positive cells were counted with a FACScan Fluorescence-activated cell sorter (FACS). The population of cells in each cell-cycle phase was determined using Cell Modi FIT software (Becton Dickinson).

[3] = system: HeLa cells; experiment: ROS generation assay (DCF-DA); conditions: 10, 15 μM, 12 h
Source text: Mitochondria have also been implicated as a source of ROS during apoptosis. […] We herein studied whether the loss of mitochondrial transmembrane potential resulting in the generation of ROS measured as described in our previous papers , using the fluorescent probe 2,7-dichlorofluorescein diacetate (DCF-DA) determined by fluorescence microscopy. […] Calcium has long been recognized as a significant participant in cell apoptosis. Therefore, we investigated whether compound 9n inducing cell death was involved in the production of Ca^2+. To investigate the effect of compound 9n on calcium release, HeLa cells treated with compound 9n at 10 μM for 24 h were loaded with the Ca^2+ indicator Fluo-3-acetoxymethyl-ester (Fluo-3/AM, 5 µM; Beyotime, Jiangsu, China).

[4] = system: caspase-3; experiment: Caspase-3 activation assay; conditions: HeLa, versus control, 3 to 24 h
Source text: It is well known that an increase of intracellular ROS can lead to apoptosis. […] Caspases are a family of cysteinyl aspartate specific proteases involved in apoptosis and are dichotomized to groups of initiators (caspases 8, 9 and 10) and executioners (caspases 3, 6 and 7). Caspase-3 is able to directly degrade multiple substrates including structural and regulatory proteins. Some small molecules have been developed to be selective activators of Caspase-3 [30]. Thus, we investigated whether caspase-3 was activated when HeLa cells were exposed to compound 9n.

In the case of `CC(C)c1ccc2c(c1)CCC1[C@](C)(C(=O)NC(=S)N[C@H](Cc3ccccc3)C(=O)Nc3ccccn3)CCC[C@]21C` (stereo partly drawn) [Compound 9n, (1R,4aS)-7-Isopropyl-1,4a-dimethyl-N-(((R)-1-oxo-3-phenyl-1-(pyridin-2-ylamino)propan-2-yl)carbamothioyl)-1,2,3,4,4a,9,10,10a-octahydrophenanthrene-1-carboxamide], the “mitochondrial membrane potential change (JC-1)” value [1] is reported as “strong green fluorescence”, the cell cycle arrest [2] is reported as “mainly arrested HeLa cells in the S stage” and the ROS level [3] is reported as “induced an increase of the ROS level”. The caspase-3 activity [4] was “significant increase in the activity of caspase-3”.
